In patent US9840494B2, “Quinazoline derivative” (Tianjin Hemay Oncology Pharmaceutical Co., Ltd., priority 2013, dated 2017):

Tests used:
[1] = MTD assay, single administration to mice; assay type: in vivo; settings: ICR male mice, tail intravenous administration, 14 days
Text: MTD Assay for a Single […] to Mice
1. Experimental Animals: ICR male mice, weighing 19-22 g, were purchased from Beijing Vital River Laboratory Animal Technology Co., Ltd., Animal License No. SCXK (Beijing) 2007-0001
2. Experimental Scheme: 21 mice were divided into nine groups: groups I, IV and VI referred to one mouse per group, groups II, V and IIX referred to four mice per group, and group III, VI and IX referred to two mice per group. Compound 4, compound 2 and compound 12 were dissolved in water for injection. Groups I-III were subjected to tail intravenous administration of compound 4 (N-[4-(3-chloro-4-fluorophenylamino)-7-(2-methoxyethoxy)quinazolin-6yl]-2-[piperidin-4-ylidene]acetamide dihydrochloride) at doses of 100 mg/kg, 150 mg/kg, and 200 mg/kg, respectively. The animal response and the weight change were observed after administration, and these animals were sacrificed after 14 days for anatomical observation. Groups IV-VI were subjected to tail intravenous administration of compound 2 (N-[4-(3-chloro-4-fluorophenylamino)-7-(2-methoxyethoxy)quinazolin-6yl]-2-[1-(2-methoxyethyl)piperidin-4-ylidene]acetamide dihydrochloride) at doses of 100 mg/kg, 150 mg/kg, and 200 mg/kg, respectively. The animal response and the weight change were observed after administration, and these animals were sacrificed after 14 days for anatomical observation. Groups VII-IX were subjected to tail intravenous administration of compound 12 (N-[4-(3-ethynylphenylamino-7-(2-ethoxy)quinazolin-6yl]-2-[1-methylpiperidin-4-ylidene]acetamide dihydrochloride) at doses of 100 mg/kg, 150 mg/kg, and 200 mg/kg, respectively. The animal response and the weight change were observed after administration, and these animals were sacrificed after 14 days for anatomical observation.

[2] = system: human head and neck cancer cell lines Fadu; test: In vitro inhibitory action on human tumor cells, Fadu (MTT); assay type: cell-based; settings: 72 h, MTT assay, usually 3 days
Method: Human epidermoid carcinoma cell line A431, human non-small cell lung cancer cell line HCC827, head and neck cancer cell lines Fadu and human pancreatic cancer cell line AsPC-1 were purchased from Cell Bank, Chinese Academy of Sciences.
3.2 Cell culture method: cells were cultured in the complete medium at 37° C. under 5% CO2 and saturated humidity until logarithmic growth phase, i.e., adherent cells substantially approach complete confluence, and then collected for subsequent assay. For the adherent cells, they were firstly digested with trypsin/EDTA to detach.
3.3 A certain number of cells were seeded into 96-well cell culture plates (hereinafter referred to as 96-well plates). […] Finally, total cellular protein in the wells was determined using SRB assay, or cell viability was determined with MTT assay.
3.3.1 The cell seeding concentration was determined by cell growth curve assay which completely simulates compound inhibition assay process. […]
3.4 Dilution and addition of compounds: the concentration of DMSO that can be tolerant by the cells was determined by DMSO tolerance assay, and thereby selecting the dilution and addition methods of compounds. The effects of different concentrations of DMSO on cell growth were determined by DMSO tolerance assay. […] Two methods are finally determined as follows. […]

Row | Compound | Mortality ([1]; 100 mg/kg, 1 animal) [%] | Number of Deaths ([1]; 100 mg/kg, 1 animal) | Mortality ([1]; 150 mg/kg, 4 animals) [%] | Number of Deaths ([1]; 150 mg/kg, 4 animals) | Mortality ([1]; 200 mg/kg, 2 animals) [%] | Number of Deaths ([1]; 200 mg/kg, 2 animals) | IC50 [2] [nM]
1 | COCCOc1cc2ncnc(Nc3ccc(F)c(Cl)c3)c2cc1NC(=O)C=C1CCN(CCOC)CC1.Cl.Cl [Compound 2, N-[4-(3-chloro-4-fluorophenylamino)-7-(2-methoxyethoxy)quinazolin-6yl]-2-[1-(2-methoxyethyl)piperidin-4-ylidene]acetamide dihydrochloride] | 0 | 0 | 0 | 0 | 0 | 0 | 
2 | COCCOc1cc2ncnc(Nc3ccc(F)c(Cl)c3)c2cc1NC(=O)C=C1CCN(CCOC)CC1.CS(=O)(=O)O [Compound 3, N-[4-(3-chloro-4-fluorophenylamino)-7-(2-methoxyethoxy)quinazolin-6-yl]-2-[1-(2-methoxyethyl)piperidin-4-ylidene]acetamide dimethylsulfonate] |  |  |  |  |  |  | 132
